{"source": "patent EP0643699B1", "about": "“6-(2-HYDROXYETHYLAMINOALKYL)-5,11-DIOXO-5,6-DIHYDRO-11H- INDENO[1,2-C]ISOQUINOLINES AND THEIR USE AS ANTINEOPLASTIC AGENTS” (priority 1991, dated 1993)", "key": {"[1]": {"test_system": "L1210 leukemia cells", "assay": "Cytotoxicity: incorporation of [14C]amino-acid mixture into trichloroacetic acid-insoluble fraction of cells", "assay_type": "cell-based, DBA2 mice", "details": "Mus musculus; Tumor L1210; Precursor [U-14C]Amino-acid mixture", "description": "(§1) The antineoplastic activity of the compounds of the invention has been investigated testing the compounds of the chemical group \"in vivo\" against experimental rodent tumors such as the solid form of Ehrlich tumour (STE, originally mammary adenocarcinoma), tumor HK (also transplantable originally mammary adenocarcinoma), Krebs' ascites tumour (Kr2), S37 ascites sarcoma, Nemeth-Keller lymphoma (NK), all maintained in mice H, Gardner lymphosarcoma (LsG, maintained in mice C3H), P388 and/or L1210 leukemia (maintained in DBA2 mice), B16 metastasizing melanocarcinoma (maintained in C57B1/6 mice) and Yoshida ascites reticulosarcoma (Y, maintained in Wistar rats) in experiments according to Jelinek, V. [Neoplasma 12, 469 (1965); ibid 7, 146 (1960)] and in \"in vitro\" experiments using radioactive precursors of nucleic acids and proteins according to Miko, M. et al. [Cancer Res 39, 4242 (1979); Neoplasma 26, 449 (1979); ibid 16, 161 (1969)] with minor modifications [Mattern, J.: Studies on the Drug Sensitivity of Short Term Cultured Tumour Cell Suspensions. In \"Human Tumours in Short Term Culture\" (Dendy, P.P. ed.), p.301, Academic Press 1976]. The Cox's proportional-hazards model was used for survival evaluation and optimal dose calculation according to Carter, V.H. et al. [cf Cancer Res. 42, 2963 (1982)]. […]"}, "[2]": {"test_system": "L1210", "assay": "Optimal dose (ED 95) in L1210 leukemia bearing mice", "assay_type": "in vivo", "details": "L1210 bearing mice DBA2", "description": "as §1"}, "[3]": {"test_system": "Ehrlich tumour", "assay": "Antitumour activity against solid form of Ehrlich tumour in mice (tumour weight, survival)", "assay_type": "in vivo, mice H", "details": "the fifth day after tumour transplantation; for Tumour weight (T/C, %): weighed on the fourteenth day", "description": "The antineoplastic activity of the compounds of the invention has been investigated testing the compounds of the chemical group \"in vivo\" against experimental rodent tumors such as the solid form of Ehrlich tumour (STE, originally mammary adenocarcinoma), tumor HK (also transplantable originally mammary adenocarcinoma), Krebs' ascites tumour (Kr2), S37 ascites sarcoma, Nemeth-Keller lymphoma (NK), all maintained in mice H, Gardner lymphosarcoma (LsG, maintained in mice C3H), P388 and/or L1210 leukemia (maintained in DBA2 mice), B16 metastasizing melanocarcinoma (maintained in C57B1/6 mice) and Yoshida ascites reticulosarcoma (Y, maintained in Wistar rats) in experiments according to Jelinek, V. [Neoplasma 12, 469 (1965); ibid 7, 146 (1960)] and in \"in vitro\" experiments using radioactive precursors of nucleic acids and proteins according to Miko, M. et al. [Cancer Res 39, 4242 (1979); Neoplasma 26, 449 (1979); ibid 16, 161 (1969)] with minor modifications [Mattern, J.: Studies on the Drug Sensitivity of Short Term Cultured Tumour Cell Suspensions. In \"Human Tumours in Short Term Culture\" (Dendy, P.P. ed.), p.301, Academic Press 1976]. The Cox's proportional-hazards model was used for survival evaluation and optimal dose calculation according to Carter, V.H. et al. [cf Cancer Res. 42, 2963 (1982)].\nSixty female mice H weighing approximately 20 g were divided into three groups: one control group and two experimental groups of 20 animal each. A lethal dose of the 40 Ehrlich tumour homogenate was implanted subcutaneously to all the animals. The animals of test groups were treated using the compounds suspended in water. […] On the fourteenth day after the tumour transplantation, half of the animals in each group were killed by ether anaesthesia, tumours were removed and weighed. The remaining animals were left to monitor the time of death and survival time was followed. […] It was also observed that the treated animals survived longer than untreated control animals."}, "[4]": {"test_system": "L1210/MX", "assay": "Cytotoxicity: incorporation of [14C]amino-acid mixture, variant resistant to mitoxantron", "assay_type": "cell-based", "details": "Mus musculus; Tumor L1210/MX; Precursor [U-14C]Amino-acid mixture", "description": "as §1"}}, "note": "Read-outs that look alike come from different tables or passages of the source. Marks after values point to notes of the source that are not given here.", "data": [{"smiles": "O=C1c2ccccc2-c2c1c1ccccc1c(=O)n2CCNCCO", "note": "[I (X=2), 6-[2-(2-hydroxyethyl)aminoethyl]-5,11-dioxo-5,6-dihydro-11H-indeno[1,2-c]isoquinoline]", "values": [{"measurement": "IC50", "setting": "[1]", "value": 78, "unit": "µM"}, {"measurement": "ED95", "setting": "[2]; Mus musculus, po, read-out: ED 95", "value": 225, "unit": "mg/kg"}, {"measurement": "ED95", "setting": "[2]; p.o., dose per body surface", "value": 675, "unit": "mg/m^2"}, {"measurement": "Survival time (T/C, %)", "setting": "[3]; 200 mg/kg p.o. once", "value": 111, "unit": "%"}, {"measurement": "Tumour weight (T/C, %)", "setting": "[3]; 200 mg/kg p.o. once", "value": "79^a) %"}, {"measurement": "Survival time (T/C, %)", "setting": "[3]; 400 mg/kg p.o. once", "value": "152^a) %"}, {"measurement": "Tumour weight (T/C, %)", "setting": "[3]; 400 mg/kg p.o. once", "value": "31^b) %"}, {"measurement": "IC50", "setting": "[4]", "value": 119, "unit": "µM"}]}]}
